We go through 13 molecules from US10702572B2, “Methods and compounds to suppress viral genome release and packaging” (Carnegie Mellon University, priority 2015, dated 2020).

A short description of one data set: in vitro. To be noted: human.
The subject of data set [1] is HSV-1, strain DM2.1 (a resistant isolate). In words: Plaque reduction assay in HFF cells. Conditions: Human alphaherpesvirus 1, HFF. Type of data set: cell-based. Here is the method: (§1) E-377 and DM2.1 strains of HSV-1 as well as the MS strain of HSV-2 were a gift of Jack Hill (Burroughs Wellcome). HCMV strain AD169 and VZV strain Ellen were obtained from the American Type Culture Collection (ATCC, Manassas, Va.).
(§2) Monolayers of HFF cells were prepared in six-well plates and incubated at 37° C. for 2 d to allow the cells to reach confluency. Media was then aspirated from the wells and 0.2 ml of virus was added to each of three wells to yield 20-30 plaques in each well. The virus was allowed to adsorb to the cells for 1 h and the plates were agitated every 15 minutes. Compounds were diluted in assay media consisting of MEM with Earl's salts supplemented with 2% FBS, L-glutamine, penicillin, and gentamycin. Solutions ranging from 300 μM to 0.1 μM were added to duplicate wells and the plates were incubated for various times, depending on the virus used. For HSV-1 and -2, the monolayers were then stained with 1% crystal violet in 20% methanol and the unbound dye removed by washing with dH2O. For all other assays, the cell monolayer was stained with 1% Neutral Red solution for 4 h then the stain was aspirated and the cells were washed with PBS. For all assays, plaques were enumerated using a stereomicroscope and the concentration of compound that reduced plaque formation by 50% (EC50) was interpolated from the experimental data.
In general terms: Plaque reduction counts the foci of infection that form in a cell layer.

Data set [2] can be described thus: Parallel cytotoxicity assay in uninfected HFF cells. To be noted: human.
A further data set deals with cell membrane. To be noted: when complexed with free DNA; cited from earlier work.
The next data set deals with HSV-1, strain E-377. Description: Plaque reduction assay in HFF cells. Type of data set: cell-based. Conditions: Human alphaherpesvirus 1, HFF; for EC50: concentration that reduces viral replication by 50%, various trials, each with its control; for EC90: concentration that reduces viral replication by 90%. Here is the method: as §1, §2
A further data set relates to HCMV, strain AD169. In words: Plaque reduction assay in HFF cells. Type of data set: cell-based. To be noted: for EC50: reduces viral replication by 50%; for EC90: reduces viral replication by 90%. Here is the method: as §1, §2
Data set [3] deals with DNA. Conditions: literature values; cited from earlier work.
The subject of data set [4] is DNA. Description: DNA condensation, internal experimental observations, dint. The class given is biochemical.
The next data set concerns phage λ. Description: Intracapsid DNA transition temperature by ITC and SAXS. Further details: species or system bacteriophage λ. Conditions: for DNA transition temperature T*: WT DNA phage λ. The text has this: WT bacteriophage λ cI857, with a genome length of 48.5 kb was produced by thermal induction of lysogenic E. coli strain AE1 derived from the 52773 strain. Two phage λ mutants with shorter genome lengths (78 and 94% of the WT DNA length) were produced using a similar procedure. The receptor was the LamB protein purified from pop 154, a strain of E. coli K12 in which the LamB gene has been transduced from Shigella sonnei 3070. Phage and LamB purification details are described in Evilevitch A., et al., Osmotic pressure inhibition of DNA ejection from phage. Proc. Natl. Acad. Sci. U.S.A. 2003; 100:9292-9295 and Ivanovska I., et al., Internal DNA pressure modifies stability of WT phage. Proc. Natl. Acad. Sci. U.S.A. 2007; 104:9603-9608.
All calorimetric measurements were performed using the MicroCal iTC200 system manufactured by GE Healthcare, Life Sciences. […] J. Mol. Biol. 2010; 395:1079-1087.
Small angle X-ray scattering (SAXS) measurements were carried out at the 12-ID B station at the Advanced Photon Source at Argonne National Laboratory. A 12-KeV X-ray beam was used to illuminate the sample with an overall scattering vector q range from 0.006 to 0.850 Å-1. A total of 120 μl of phage solution (˜5×1013 pfu/ml) was injected into a flow-through glass capillary and the solution was oscillated during the SAXS measurement with a flow rate of 10 μl/s. Forty scans with 1 s X-ray exposure time were collected and averaged for each sample. A buffer solution of the dialysis buffer for phage samples was measured using the same SAXS setup, which was further subtracted as the background. After the background subtraction, the scattered intensity I versus q was plotted and the DNA peak region was truncated from 0.18 Å-1 to 0.33 Å-1. This DNA diffraction peak was fitted with a Gaussian curve plus a linear background using function (1), where q0 is the peak center, w is the peak width, A0 is the peak area, k is the slope of the linear background and c is the offset.
[formula] […] Single-Molecule Fluorescence Measurements of Phage Ejection Ensemble Kinetics.
ITC and SAXS assays were used to determine DNA transition temperatures for WT λ-DNA length phage in MgCl2 Tris-buffer with MgCl2 concentrations varied between 5 and 50 mM, see FIGS. 3A-3C. The intracapsid DNA transition occurs at temperature T*, corresponding to either a discontinuity in the linear dependence of ΔHej on temperature (FIG. 3A) or to an abrupt change in the linear decay of the DNA diffraction peak area versus temperature measured by SAXS (FIG. 3B). DNA transition temperatures as a function of Mg-concentration determined by both techniques are in good agreement with each other and are summarized in FIG. 3C. […] However, the inventors have previously shown that at DNA packing density in phage λ, the screening effect of Mg-ions will become progressively smaller with increasing Mg-concentration due to the counter-ion saturation (Evilevitch A., et al., Effects of salt concentrations and bending energy on the extent of ejection of phage genomes. Biophys. J. 2008; 94:1110-1120). Furthermore, if the Mg ion concentration continues to increase, the counterions are forced into regions on the helices that begin to increase the effective repulsions between packaged DNA strands. […]
For orientation: Isothermal titration calorimetry measures the heat released or taken up as one component is titrated into another.

[5] abbreviates: CC50, parallel to HSV-1 DM2.1 assay.
The mark [6] stands for this setting: CC50, parallel to HCMV AD169 assay.
Setting [7] is: CC50, parallel to HSV-1 E-377 assay, reduces cell viability by 50%.
Setting [8] is: Human betaherpesvirus 5, AD169, HFF.

The EC50 is the midpoint of the concentration-response curve. Lower therefore signals greater potency. The EC90 is the point of the concentration-response curve where the effect stands at 90%. A higher EC90 goes with a need for much substance.

Molecule `Nc1ccn(C[C@@H](CO)OCP(=O)(O)O)c(=O)n1` [Cidofovir, reference compound] displayed a CC50 in “in vitro” (setting [5]) of more than 150 µM. In [1], this molecule had an EC50 of 2.64 µM and an EC90 of more than 150 µM.
With `NCCCN(CCCN)CCCCN(CCCN)CCCN` [DAB-Am-4, Polypropylenimine tetramine dendrimer, generation 1,1,4-diaminobutane core, generation 1 solution], the CC50 in [2] (setting [6]) was 15.4 µM; in [2] (setting [5]) it was 28.6 µM; in data set [2] (setting [7]), 38.1 µM. Moreover, the “permeation of cell membranes” value with cell membrane was “permeate cell membranes when complexed with free DNA”. The EC50 in the data set on HSV-1, strain E-377 was 0.48 µM; in data set [1] it was more than 19 µM; with HCMV, strain AD169 (setting [8]), 0.51 µM. The EC90 was 3.49 µM in the data set on HSV-1, strain E-377; more than 19 µM in data set [1]; 3.11 µM in the data set with HCMV, strain AD169 (setting [8]).
Regarding `NCCCN(CCCN)CCCN(CCCCN(CCCN(CCCN)CCCN)CCCN(CCCN)CCCN)CCCN(CCCN)CCCN` [DAB-Am-8, Polypropylenimine octaamine Dendrimer, generation 2.0,1,4-diaminobutane core], the CC50 in data set [2] (setting [6]) was determined as 4.41 µM; in data set [2] (setting [5]) it was 9.32 µM; in data set [2] (setting [7]), 13 µM. The “permeation of cell membranes” value in the data set on cell membrane is given as “permeate cell membranes when complexed with free DNA”. Further, the EC50 turned out to be 0.09 µM with HSV-1, strain E-377; 0.1 µM in data set [1]; 0.08 µM in the data set with HCMV, strain AD169 (setting [8]). Moreover, the EC90 in the data set on HSV-1, strain E-377 was more than 3.8 µM; in data set [1] it was more than 3.8 µM; with HCMV, strain AD169 (setting [8]) it was more than 3.8 µM.
For the molecule `Nc1nc(O)c2ncn(COC(CO)CO)c2n1` [Ganciclovir, reference compound], the CC50 in the data set “in vitro” (setting [6]) is more than 150 µM. In addition, the EC50 was 0.35 µM in the data set with HCMV, strain AD169 (setting [8]) and 0.3 µM with HCMV, strain AD169.
With `N.N.N.N.N.N.[Cl-].[Cl-].[Cl-].[Co+3]` [Hexaamminecobalt(III) chloride], the “dint (DNA condensation observed experimentally)” value with DNA [3] is 27.8-28.2 Å. The “DNA condensed to (internal experimental observations)” value in the data set on DNA [4] (2-100 mM) is reported as 28 Å.
Turning to `[Cl-].[Cl-].[Mg+2]` [MgCl2], the “DNA transition temperature T*” value in the data set with phage λ (5 mM MgCl2 Tris-buffer) was approximately 22 °C; with phage λ (20 mM MgCl2 Tris-buffer), approximately 37 °C; in the data set on phage λ (50 mM MgCl2 Tris-buffer), approximately 35 °C.
With `Cl.Cl.Cl.NCCCCNCCCN` [Spermidine trihydrochloride], the “dint (DNA condensation observed experimentally)” value in the data set on DNA [3] is given as 28.8-29.7 Å.
Take `Cl.Cl.Cl.Cl.NCCCNCCCCNCCCN` [spermine tetrahydrochloride]: the “intracapsid DNA transition (DNA diffraction peak area vs temperature)” value with phage λ (WT DNA length phage λ, 10 mM MgCl2 Tris-buffer, 1 mM spermine (4+), 20-40° C.) is “no abrupt DNA transition is observed”. In addition, the “dint (DNA condensation observed experimentally)” value with DNA [3] is recorded as 28 Å. The “dint, internal experimental observations” value with DNA [4] (0.5-100 mM) was 28.2-29.4 Å.
For “Arg4+: poly-L-arginine peptide (SEQ ID NO: 21), Charge=+4 (RRRR; Synthetic Arg4+)”, the “dint (DNA condensation observed experimentally)” value in the data set with DNA [3] is 29.8 Å. The “dint, internal observations” value in the data set on DNA [4] (1-2.5 mM) was 29.7-30.3 Å.
Tetralysine (KKKK; Synthetic Lys4+): in the data set on DNA [3], the “dint (DNA condensation observed experimentally)” value was 34.9 Å.
For Tetraornithine, in the data set on DNA [3], the “dint (DNA condensation observed experimentally)” value is listed as 32.2 Å.
On to Trilysine, for which, in the data set with DNA [3], the “dint (DNA condensation observed experimentally)” value was 38.9 Å.
In the case of Triornithine, the “dint (DNA condensation observed experimentally)” value in the data set on DNA [3] is 35.6 Å.
